Patent publication US20260248774A1, “INHIBITORS OF BACTERIAL TYPE III SECRETION SYSTEM” (MICROBIOTIX, INC., priority 2022, published 2026)
Where two headings read alike, the source gives them in different places.

What was measured:
[1] = Mammalian cytotoxicity (CC50), MTS conversion; format: cell-based, human; conditions: human
Method: Determination of Mammalian Cytotoxicity.
Following incubation for 3 days at 37° C. in VP-SFM, cell viability was measured with the vital tetrazolium salt stain 3-(4,5-dimethylthiazol-2-yl)-2,5 diphenyltetrazolium bromide according to the manufacturer's instructions (Promega, Madison, Wisconsin). Values were determined in triplicate using dilutions of inhibitory compound from 100 μM to 0.2 μM.

[2] = Kinetic aqueous solubility (nephelometric assay); format: physicochemical; conditions: for solubility kinetic: kinetic from dmso stock, Table 9, kinetic solubility in water (nephelometric assay); for Sol: Table 1
Source text: Solubility. The maximum aqueous solubility of analogs will be initially determined by nephelometry using a published method (44).

[3] = test system: P. aeruginosa T3SS-mediated secretion of ExoS-β-lactamase fusion protein; assay: Effector-β-lactamase (ExoS-βLA) reporter assay of T3SS-mediated secretion; format: cell-based, Pseudomonas aeruginosa; conditions: read-out: ExoS-BLA IC50
Source text: Effector-β-Lactamase (βLA) Reporter Assay of T3SS-Mediated Secretion with an Absorbency Signal.
A gene encoding the exoS promoter/regulatory region and an ExoS-β-lactamase (βLA) fusion protein (comprised of the full length P. aeruginosa T3SS effector ExoS fused in reading frame to the TEM-1 β-lactamase gene lacking secretion signal codons) was constructed by splicing by overlap extension PCR (SOE-PCR) (Choi and Schweizer, 2005, BMC Microbiol., 5:30), sequence confirmed, cloned into miniCTX and introduced into P. aeruginosa strain PAO1 to generate strains MDM1746 and MDM1838 as previously described for strain MDM1710 (Bowlin et al., 2014, Antimicrob Agents Chemother., 58:2211-2220). Secretion of ExoS-β-lactamase fusion protein following EGTA addition to induce the T3SS operons was detected by measuring the hydrolysis of the chromogenic β-lactamase substrate nitrocefin in clear 96-well microplates in a modification of a previously described assay (Lee, et al., 2007, Infect. Immun., 75:1089-98). Cells of strain MDM1746, or negative control MDM1838 (which fails to carry out T3SS secretion due to ΔpscF), were sub-cultured in the morning from overnight growths in LBG into 0.1 ml of LBGE with or without test compounds and grown for 150 min. Nitrocefin (100 μg/mL final) was added, and A490 measurements taken every minute for 15 min in a Victor^3V 1420 Multilabel HTS Counter (PerkinElmer). Slopes were calculated as a relative measure of the quantity of the effector-βLA fusion protein secreted and were absolutely dependent on induction with EGTA, and the presence of a functional pscF gene in the P. aeruginosa cells. Typical signal: background ratios were 6-10.

[4] = test system: P. aeruginosa T3SS-mediated secretion (exoT-luxCDABE reporter strain MDM852); assay: Luciferase (exoT-lux) transcriptional reporter assay of T3SS-mediated secretion; format: cell-based, Pseudomonas aeruginosa
Source text: Luciferase Transcriptional Reporter Assay of T3SS-Mediated Secretion with a Luminescent Signal.
A transcriptional fusion of the Photorhabdus luminescens lux operon (luxCDABE) to P. aeruginosa PAO1 T3SS effector gene exoT (PA0044) was constructed and used to build strain MDM852 as described previously (Aiello et al., 2010, Antimicrob Agents Chemother, 54:1988-1999). Induction of T3SS operons by Ca^++ depletion due to EGTA addition results in secretion of the T3SS negative regulator ExsE and the production of high levels of T3SS components including the luxCDABE gene products, which results in luminescence that is easily detected by a microplate reader. Inhibition of T3SS-mediated secretion of the negative regulator ExsE by a small molecule inhibitor causes reduced production of luxCDABE gene products and reduced luminescence. For inhibitor IC50 testing, compounds were added to a 96-well microplate in a concentration dilution series. Reporter strain MDM852 was grown at 37° C. in LBG to OD600 ~0.025-0.05, transferred into the microplate (50 uL/well) containing test compounds and EGTA (5 uL of 0.1 M stock solution), which was covered with a translucent gas-permeable seal (Abgene, Inc., Cat. No. AB-0718). […] Plates were incubated at room temperature for 300 min. Then, luminescence was measured in an Envision Multilabel microplate reader (PerkinElmer). The screening window coefficient, Z′-factor (see Zhang, et al., 1999, J. Biomol. Screen., 4:67-73), defined as the ratio of the positive and negative control separation band to the signal dynamic range of the assay, averaged 0.7 for the assay.

[5] = test system: T3SS-mediated translocation of ExoU by P. aeruginosa strain MDM1561 (PA99U) into CHO cells; assay: P. aeruginosa ExoU-dependent CHO cell killing assay for T3SS-mediated translocation; format: cell-based, Pseudomonas aeruginosa; conditions: for EC50: read-out: Translocation EC50; for potency of inhibition of T3SS-mediated translocation: assessment in text on Table 1
Source text: P. aeruginosa ExoU-Dependent CHO Cell Killing.

[6] = Table 9, cytotoxicity vs. HeLa cells, read-out: Cytotox CC50
[7] = read-out: LUX Sec IC50, Table 1
[8] = HeLa cells, Table 1, HeLa, read-out: Cytotox-HeLa CC50

Row | SMILES | CC50 at 3 days [1, 6] [µM] | solubility kinetic [2] [µM] | IC50 ([3]; Table 1) [µM] | IC50 [4, 7] [µM] | EC50 ([5]; Table 1) [µM] | other results
1 | CC[C@@H](Oc1ccc(Cl)c(Cl)c1Cl)C(=O)NCCc1cccc(NC(=O)NC2CC3(C2)CN(CCC(=O)O)C3)c1 [MBX-7477A] | ≥ 200 | – | – | – | – | –
2 | CC[C@@H](Oc1ncc(Cl)cc1Cl)C(=O)NCc1cccc(C(=O)NC2CN(CCC(=O)[O-])C2)c1.[Li+] [MBX-5427A] | ≥ 200 | 100 | – | – | – | –
3 | CC(Oc1ccc(Cl)cc1Cl)C(=O)NC(CO)c1ccc(F)cc1 (stereo not drawn) [MBX-2625] | – | – | 5 | 7.1 | 22 | –
4 | CC[C@@H](Oc1ncc(Cl)cc1Cl)C(=O)NC(CO)Cc1ccc(F)cc1 (stereo partly drawn) [MBX-3323] | – | – | 5 | 5.2 | 13 | potency of inhibition of T3SS-mediated translocation [5]: not quite potent enough
5 | CC[C@@H](Oc1ncc(Cl)cc1Cl)C(=O)NCc1cccc(NC(=O)N2CC3(CN(CCC(=O)[O-])C3)C2)c1.[Li+] [MBX-7062A] | – | 3.5 | – | – | – | –
6 | CC(Oc1ccc(Cl)cc1Cl)C(=O)NCc1ccc2c(c1)OCO2 (stereo not drawn) [MBX-1641, N-(benzo[d][1,3]dioxol-5-ylmethyl)-2-(2,4-dichlorophenoxy)propanamide, reference compound] | – | – | 10 | 4.7 | 15 | IC50 ([3]; Table 6): 10 µM; IC50 ([4]; read-out: LUX IC50, Table 6): 4.7 µM; EC50 ([5]; Table 6): 15 µM
7 | CC(Oc1ccc(Cl)cc1Cl)C(=O)NCC(O)c1ccc(F)cc1 (stereo not drawn) [MBX-2785] | – | – | 15 | 18 | 25 | potency of inhibition of T3SS-mediated translocation [5]: not quite potent enough
8 | CC[C@@H](Oc1ncc(Cl)cc1Cl)C(=O)NCc1cccc(NC(=O)NC2CN(CCC(=O)[O-])C2)c1.[Li+] [MBX-5442A] | ≥ 200 | 200 | – | – | – | –
9 | CC[C@@H](Oc1ncc(Cl)cc1Cl)C(=O)NCc1cccc(NC(=O)N2CC3(CN(CC(C)(C)C(=O)[O-])C3)C2)c1.[Li+] [MBX-7061A] | – | 1.1 | – | – | – | –
10 | CC[C@@H](Oc1ccc(Cl)c(Cl)c1Cl)C(=O)NCc1cccc(NC(=O)NC2CC3(C2)CN(CC(=O)O)C3)c1 [MBX-7476A] | ≥ 200 | – | – | – | – | –
11 | CC[C@@H](Oc1ncc(Cl)cc1Cl)C(=O)N[C@@H](CO)Cc1ccc(F)cc1 [MBX-4567] | – | – | 14 | 8.5 | 60 | potency of inhibition of T3SS-mediated translocation [5]: not quite potent enough
12 | CC[C@@H](Oc1ncc(Cl)cc1Cl)C(=O)NCc1cccc(CN)c1 [MBX-4565] | – | – | 9 | 8.3 | 20 | –
13 | CC[C@@H](Oc1ncc(Cl)cc1Cl)C(=O)NCc1cccc(C(=O)NC2CC3(C2)CN(CC(=O)[O-])C3)c1.[Li+] [MBX-5527A] | – | ≥ 400 | – | – | – | –
14 | CCC(Oc1ncc(Cl)cc1Cl)C(=O)NCc1ccc2sccc2c1 (stereo not drawn) [MBX-2359, reference compound] | – | – | 1.5 | 1.3 | – | IC50 ([3]; Table 6): 1.5 µM; IC50 ([4]; read-out: LUX IC50, Table 6): 1.3 µM
15 | CC[C@@H](Oc1ncc(Cl)cc1Cl)C(=O)NCc1cccc(C(=O)N2CC3(CC(NCCC(=O)[O-])C3)C2)c1.[Li+] [MBX-5529A] | – | ≥ 400 | – | – | – | –
16 | CC[C@@H](Oc1ncc(Cl)cc1Cl)C(=O)NCc1cccc(NC(=O)NC2COCC(NCCC(=O)O)C2)c1 (stereo partly drawn) [MBX-7531A] | ≥ 200 | – | – | – | – | –
17 | CC[C@@H](Oc1ncc(Cl)cc1Cl)C(=O)NCCc1ccc(NC(C)=O)cc1 [MBX-3337] | – | – | 1.2 | 1.4 | 4.8 | –
18 | CC(=O)Nc1ccc(CCNC(=O)C(C)Oc2ccc(Cl)cc2Cl)cc1 (stereo not drawn) [MBX-2837] | – | – | 9 | 3.5 | 13 | –
19 | CC[C@@H](Oc1ncc(Cl)cc1Cl)C(=O)NCc1cccc(NC(=O)NCC2CN(CC(=O)O)C2)c1 [MBX-7438A] | ≥ 200 | – | – | – | – | –
20 | CCC(Oc1ncc(Cl)cc1Cl)C(=O)NCc1ccc2c(c1)OCO2 (stereo not drawn) [MBX-2263] | – | – | 2 | 2.7 | 17 | CC50 at 3 days [1, 8]: > 100 µM; Sol [2]: 25 µM; solubility for formulation ([2]; assessment in text on Table 1): not soluble enough
21 | CC[C@@H](Oc1ncc(Cl)cc1Cl)C(=O)NCc1cccc(C(=O)NC2CC3(C2)CN(CCCC(=O)[O-])C3)c1.[Li+] [MBX-5524A] | – | ≥ 400 | – | – | – | –
22 | CC[C@@H](Oc1ncc(Cl)cc1Cl)C(=O)NCc1cccc(CC(=O)NC2CC3(C2)CN(CCC(=O)[O-])C3)c1.[Li+] [MBX-5548A] | – | 200 | – | – | – | –
23 | CC[C@@H](Oc1ncc(Cl)cc1Cl)C(=O)NCc1cccc(C(=O)NC2CNC2)c1 [MBX-5031] | – | – | 1.7 | 0.2 | 1.7 | –
24 | CCC(Oc1ncc(Cl)cc1Cl)C(=O)NCc1ccc(F)cc1 (stereo not drawn) [MBX-2264] | – | – | 2 | 2 | > 35 | CC50 at 3 days [1, 8]: 85 µM; Sol [2]: 200 µM; potency of inhibition of T3SS-mediated translocation [5]: not quite potent enough
25 | CC[C@@H](Oc1ncc(Cl)cc1Cl)C(=O)NCc1cccc(CNC2CC(C(=O)[O-])C2)c1.[Li+] (stereo partly drawn) [MBX-5456A] | 107 | 200 | – | – | – | –
26 | CC[C@@H](Oc1ncc(Cl)cc1Cl)C(=O)NCc1cccc(C(=O)NC2CN(CC(=O)[O-])C2)c1.[Li+] [MBX-5454A] | ≥ 100 | 200 | – | – | – | –
27 | CC[C@@H](Oc1ncc(Cl)cc1Cl)C(=O)NCc1cccc(C(=O)NCC2CC3(C2)CN(CCC(=O)[O-])C3)c1.[Li+] [MBX-5522A] | – | ≥ 400 | – | – | – | –
28 | CC[C@@H](Oc1ncc(Cl)cc1Cl)C(=O)NCc1cccc(C(=O)NC2CN(CCCC(=O)[O-])C2)c1.[Li+] [MBX-5430A] | ≥ 200 | 200 | – | – | – | –
29 | CC[C@@H](Oc1ncc(Cl)cc1Cl)C(=O)NCc1cccc(NC(=O)NCCNCC(=O)O)c1 [MBX-7497A] | ≥ 200 | – | – | – | – | –
30 | CC[C@@H](Oc1ccc(Cl)c(Cl)c1Cl)C(=O)NCCc1cccc(NC(=O)NC2CC3(C2)CN(CC(=O)O)C3)c1 [MBX-7478A] | ≥ 200 | – | – | – | – | –
